Source: publication PMC6709486, “Safety, Tolerability, Pharmacokinetics, and Drug Interaction Potential of SPR741, an Intravenous Potentiator, after Single and Multiple Ascending Doses and When Combined with β-Lactam Antibiotics in Healthy Subjects” (Antimicrobial Agents and Chemotherapy, 2019)
Peptide text beside a SMILES is read from it.

Assay: MAD phase safety and tolerability
Format: in vivo, human
Source text: The SAD/MAD study was a phase 1, double-blind, placebo-controlled, multicohort trial. Part 1 used a SAD design according to which subjects received a single i.v. dose of SPR741. Part 2 used a MAD design in which subjects received multiple daily i.v. doses of SPR741 over a period of 14 days. The objective was to assess the safety/tolerability and PK of single and multiple ascending doses of SPR741.
In the SAD phase, healthy volunteers were screened within 28 days prior to dosing. Subjects were admitted to the clinical facility on day −1 for up to 3 days. A single dose of SPR741 (or placebo) was administered on day 1. Following completion of all safety assessments and sampling for PK analyses, subjects were discharged on day 2. A follow-up visit occurred 5 to 7 days after day 1 dosing. In the MAD phase, all subjects were admitted to the clinical facility on day −1. Dosing commenced on the morning of day 1. Three doses were administered daily at approximately 8 (±0.5)-h intervals for a total of 14 consecutive days. The last dose was administered on the morning of day 14. Blood and urine samples were collected for assessment of PK parameters. Subjects were discharged on day 16 following completion of all PK sample collection and safety assessments, and a follow-up visit occurred 5 to 7 days after the last dose.
The MAD phase of the study began after safety and tolerability were confirmed in cohort 5, and the appropriate dose level was established. Two subjects received placebo, and six subjects received SPR741 doses of 50, 150, 400 or 600 mg q8h for 14 days. In the first cohort of the MAD phase (50 mg q8h), two subjects (sentinels) began dosing with SPR741 or placebo 72 h prior to dosing of the remaining subjects in this cohort. The remaining six subjects were dosed only after no safety concerns were identified by the Safety Monitoring Group at 72 h. After each MAD dose cohort had completed administration of study drug and all evaluations, the Safety Monitoring Group reviewed blinded cumulative safety data (including the day 19 to 21 follow-up data) to confirm the safety and tolerability of study drug.
For both studies, safety assessments included clinical laboratory testing (hematology, coagulation, serum chemistry, renal chemistry, and urinalysis), vital signs (blood pressure, heart rate, body temperature, and respiratory rate), physical examination, and triplicate 12-lead ECGs. […] Adverse events were recorded at each study visit.

## CC(=O)N[C@H](C(=O)N[C@H](CO)C(=O)N[C@H]1CCNC(=O)[C@H]([C@@H](C)O)NC(=O)[C@H](CCN)NC(=O)[C@H](CCN)NC(=O)[C@H](CC(C)C)NC(=O)[C@@H](Cc2ccccc2)NC(=O)[C@H](CCN)NC1=O)[C@@H](C)O [SPR741] (HELM PEPTIDE1{[ac].T.[dS].[Dab].[Dab].[dF].L.[Dab].[Dab].T}$PEPTIDE1,PEPTIDE1,4:R3-10:R2$$$V2.0)
MAD
  deaths or severe TEAEs: No deaths or severe TEAEs occurred
In vivo
  Abdominal pain: No. (%) of subjects: 2 (8)
  Abdominal pain: No. of events: 2
  All systemic TEAEs: No. (%) of subjects: 24 (100)
  All systemic TEAEs: No. of events: 178
  Arthralgia: No. (%) of subjects: 2 (8)
  Arthralgia: No. of events: 3
  Back pain: No. (%) of subjects: 2 (8)
  Back pain: No. of events: 2
  Chest discomfort: No. (%) of subjects: 2 (8)
  Chest discomfort: No. of events: 2
  Contusion: No. (%) of subjects: 2 (8)
  Contusion: No. of events: 2
  CrCl on day 16: 65 mL/min
  Creatinine clearance decrease: No. of events: 6
  Dermatitis contact: No. of events: 7
  Diarrhea: No. of events: 3
  Dysesthesia: No. (%) of subjects: 2 (8)
  Dysesthesia: No. of events: 2
  Headache: No. of events: 8
  Nausea: No. (%) of subjects: 2 (8)
  Nausea: No. of events: 2
  Rhinitis: No. (%) of subjects: 2 (8)
  Rhinitis: No. of events: 2
  catheter site erythema related to the PK cannula: 13%
  catheter site pain related to the PK cannula: 25%
  decline in CrCl: 50%
  infusion site phlebitis, SPR741 subjects: 3
  infusion site thrombosis, SPR741 subjects: 2
  serious AE of atrial fibrillation, probably related to treatment, withdrawn: One subject
In vivo, iv
  infusion site reactions (site bruising, erythema, pain, phlebitis, swelling), total number: 81
